Laboratory results reported in ChEMBL document CHEMBL4033722, “Carboxylated aurone derivatives as potent inhibitors of xanthine oxidase” (Bioorg Med Chem, 2017).

Assays:
[1] = target: T1, Xanthine dehydrogenase/oxidase (Bos taurus, UniProt P80457); experiment: Inhibition of bovine milk xanthine-oxidase using xanthine as substrate after 5 mins by spectrophotometric method
[2] = target: T1, Xanthine dehydrogenase/oxidase; experiment: Mixed-type inhibition of bovine milk xanthine oxidase assessed as enzyme-substrate-inhibitor complex using varying levels of xanthine as substrate by Line-weaver burk plot analysis
[3] = target: T1, Xanthine dehydrogenase/oxidase; experiment: Mixed-type inhibition of bovine milk xanthine oxidase assessed as enzyme-inhibitor complex using varying levels of xanthine as substrate by Line-weaver burk plot analysis
[4] = target: T1, Xanthine dehydrogenase/oxidase; experiment: Inhibition of bovine milk xanthine-oxidase up to 10 uM using xanthine as substrate after 5 mins by spectrophotometric method; details: cattle

T1 sequence (P80457 whole entry): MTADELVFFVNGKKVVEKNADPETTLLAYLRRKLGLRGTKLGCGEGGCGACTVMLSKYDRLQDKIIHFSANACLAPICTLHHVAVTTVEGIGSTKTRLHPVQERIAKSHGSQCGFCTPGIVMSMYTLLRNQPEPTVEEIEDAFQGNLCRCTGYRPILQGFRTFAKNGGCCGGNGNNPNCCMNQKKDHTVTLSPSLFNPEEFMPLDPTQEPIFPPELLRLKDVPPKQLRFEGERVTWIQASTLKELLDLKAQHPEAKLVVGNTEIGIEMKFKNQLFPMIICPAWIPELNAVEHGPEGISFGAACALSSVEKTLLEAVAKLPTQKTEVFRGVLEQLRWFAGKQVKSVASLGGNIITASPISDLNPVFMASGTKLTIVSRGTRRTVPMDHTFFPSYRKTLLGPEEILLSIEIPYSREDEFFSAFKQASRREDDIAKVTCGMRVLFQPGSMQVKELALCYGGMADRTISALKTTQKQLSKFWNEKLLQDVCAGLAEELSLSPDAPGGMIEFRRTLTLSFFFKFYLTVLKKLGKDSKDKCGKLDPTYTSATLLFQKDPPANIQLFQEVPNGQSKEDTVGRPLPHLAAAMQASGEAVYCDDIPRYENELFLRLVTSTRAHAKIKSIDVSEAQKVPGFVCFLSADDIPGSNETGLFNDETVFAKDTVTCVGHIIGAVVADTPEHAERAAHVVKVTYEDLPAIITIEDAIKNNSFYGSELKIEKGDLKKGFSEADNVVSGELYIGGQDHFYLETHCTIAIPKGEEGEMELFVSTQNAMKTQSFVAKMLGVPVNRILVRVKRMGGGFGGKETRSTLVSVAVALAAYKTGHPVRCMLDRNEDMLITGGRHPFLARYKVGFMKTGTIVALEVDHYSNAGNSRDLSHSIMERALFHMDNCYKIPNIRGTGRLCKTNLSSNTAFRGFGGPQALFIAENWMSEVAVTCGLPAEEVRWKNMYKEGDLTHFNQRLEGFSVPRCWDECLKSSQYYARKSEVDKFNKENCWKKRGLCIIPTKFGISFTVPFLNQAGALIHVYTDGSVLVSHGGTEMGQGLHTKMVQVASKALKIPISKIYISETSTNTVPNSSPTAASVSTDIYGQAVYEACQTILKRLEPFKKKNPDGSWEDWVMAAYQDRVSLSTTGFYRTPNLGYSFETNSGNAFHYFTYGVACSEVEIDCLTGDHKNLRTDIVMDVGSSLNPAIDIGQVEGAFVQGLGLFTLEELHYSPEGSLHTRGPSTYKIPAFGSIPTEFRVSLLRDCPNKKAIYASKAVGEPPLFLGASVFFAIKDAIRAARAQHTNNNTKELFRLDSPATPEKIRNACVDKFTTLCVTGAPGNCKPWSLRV

Row | IC50 [1] [nM] | Compound | further results
1 | 69 | O=C(O)c1ccc(/C=C2\Oc3cc(OCc4cccc5ccccc45)ccc3C2=O)cc1 | –
2 | 68 | O=C(O)c1ccc(/C=C2\Oc3cc(O)ccc3C2=O)cc1 | –
3 | 1270 | COc1ccc(/C=C2\Oc3cc(OCC(=O)O)ccc3C2=O)c(OC)c1 | Ki [2]: 34.3 nM; Ki [3]: 2.9 nM
4 | – | COC(=O)COc1ccc2c(c1)O/C(=C\c1ccccc1)C2=O | inhibition (INH) [4]: Not Active
5 | 4470 | O=C(O)COc1ccc2c(c1)O/C(=C\c1ccccc1)C2=O | –
6 | 46 | C=C(C)COc1ccc2c(c1)O/C(=C\c1ccc(C(=O)O)cc1)C2=O | Ki [2]: 1200 nM; inhibition (INH) ([1]; cattle, 5 min): Dose-dependent effect; Ki [3]: 128 nM
7 | 1300 | COc1ccccc1/C=C1\Oc2cc(OCC(=O)O)ccc2C1=O | –
8 | 62 | Cc1ccc(C)c(COc2ccc3c(c2)O/C(=C\c2ccc(C(=O)O)cc2)C3=O)c1 | –
9 | 3840 | O=C(O)COc1ccc2c(c1)O/C(=C\c1ccccc1C(=O)O)C2=O | –
10 | 1230 | O=C(O)COc1ccc2c(c1)O/C(=C\c1ccccc1Cl)C2=O | –
11 | 80 | COc1ccc2c(c1)O/C(=C\c1ccc(C(=O)O)cc1)C2=O | –
12 | – | CC(Oc1ccc2c(c1)O/C(=C\c1ccccc1Cl)C2=O)C(=O)O (stereo unspecified) | inhibition (INH) [4]: Not Active
13 | 150 | O=C(O)COc1ccc2c(c1)O/C(=C\c1ccc(C(=O)O)cc1)C2=O | –
14 | 61 | O=C(O)c1ccc(/C=C2\Oc3cc(OCc4ccccc4)ccc3C2=O)cc1 | –
15 | 1570 | COc1ccc(/C=C2\Oc3cc(OCC(=O)O)ccc3C2=O)cc1 | –
16 | 3100 | O=C1/C(=C/c2ccc(O)c(O)c2)Oc2cc(O)ccc21 [SULFURETIN] | –
